Test results: patent publication US7659289B2, “Hydroxyethylene-based β-secretase inhibitors and use thereof” (CoMentis, Inc., priority 2004, dated 2010)

What was measured:
[1] = molecular target: Cathepsin D (Homo sapiens, UniProt P07339); test: Inhibition of cathepsin D activity (MALDI-TOF, substrate peptide […]); format: biochemical; settings: pH 4.1, 37 degrees C., read-out: Cath D Ki
[2] = system: Aβ production; test: Cellular Aβ IC50 determination (Aβ40 sandwich ELISA); format: cell-based; settings: Cricetulus griseus; Aβ40, Chinese hamster ovary cells over-expressing human APP695 with London and Swedish mutations, 24 h incubation
Procedure: The potency of compounds against memapsin 2 activity was determined in a cellular assay of Aβ production. […] Chinese hamster ovary cells that over-express human APP695 with the London and Swedish mutations were seeded in multi-well plates at 10% confluency. Compounds were dissolved in DMSO to concentrations near 1 mM, and diluted into culture media to a final concentration near 4 μM (final 0.4% DMSO). Compounds were diluted serially and applied to cells in multi-well plates 48 h after seeding. Incubation was continued in 5% CO2 at 37 degrees C. for 24 h. Aliquots were removed and assayed for Aβ40 content using a sandwich ELISA (BioSource International). Amount of Aβ40 over the range of concentration of compounds, relative to control incubations, were fit to a 4-parameter IC50 model.

[3] = molecular target: T1, Memapsin 1 (Homo sapiens, UniProt Q9Y5Z0); test: Inhibition of memapsin 1 beta-secretase activity (MALDI-TOF, substrate peptide […]); format: biochemical; settings: pH 4.1, 37 degrees C., read-out: M1 Ki
T1 sequence (Q9Y5Z0 63-473 limits assumed): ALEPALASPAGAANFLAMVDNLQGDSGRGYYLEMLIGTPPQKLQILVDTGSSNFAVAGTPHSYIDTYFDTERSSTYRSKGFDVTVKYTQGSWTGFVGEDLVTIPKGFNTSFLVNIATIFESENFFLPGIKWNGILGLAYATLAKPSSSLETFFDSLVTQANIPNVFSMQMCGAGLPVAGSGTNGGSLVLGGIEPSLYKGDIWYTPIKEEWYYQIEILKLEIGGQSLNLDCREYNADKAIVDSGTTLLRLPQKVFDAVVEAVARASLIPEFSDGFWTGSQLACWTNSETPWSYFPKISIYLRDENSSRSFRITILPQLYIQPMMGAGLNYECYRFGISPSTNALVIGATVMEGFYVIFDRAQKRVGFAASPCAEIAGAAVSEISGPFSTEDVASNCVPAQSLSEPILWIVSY

[4] = molecular target: memapsin 2 (Homo sapiens, UniProt P56817); test: Inhibition of memapsin 2 beta-secretase activity toward fluorogenic substrate FS-2; format: biochemical; settings: pH 4, 37° C., 20 minutes pre-incubation, fluorogenic substrate FS-2, tight-binding model; read-out: M2 Ki
Sequence of memapsin 2 (P56817 46-501): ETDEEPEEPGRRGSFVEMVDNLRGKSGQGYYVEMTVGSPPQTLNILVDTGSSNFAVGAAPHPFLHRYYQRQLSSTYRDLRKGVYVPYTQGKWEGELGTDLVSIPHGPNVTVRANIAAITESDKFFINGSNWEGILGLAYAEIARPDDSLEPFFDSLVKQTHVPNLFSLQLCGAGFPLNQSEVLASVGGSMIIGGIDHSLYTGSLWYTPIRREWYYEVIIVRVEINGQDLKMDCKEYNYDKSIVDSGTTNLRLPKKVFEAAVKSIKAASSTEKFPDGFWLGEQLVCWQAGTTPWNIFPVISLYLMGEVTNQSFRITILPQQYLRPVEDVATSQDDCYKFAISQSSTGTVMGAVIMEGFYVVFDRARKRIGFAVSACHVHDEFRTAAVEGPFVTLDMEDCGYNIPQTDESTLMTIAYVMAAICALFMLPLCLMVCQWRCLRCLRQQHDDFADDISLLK

Sequence of Cathepsin D (P07339 65-412, species assumed): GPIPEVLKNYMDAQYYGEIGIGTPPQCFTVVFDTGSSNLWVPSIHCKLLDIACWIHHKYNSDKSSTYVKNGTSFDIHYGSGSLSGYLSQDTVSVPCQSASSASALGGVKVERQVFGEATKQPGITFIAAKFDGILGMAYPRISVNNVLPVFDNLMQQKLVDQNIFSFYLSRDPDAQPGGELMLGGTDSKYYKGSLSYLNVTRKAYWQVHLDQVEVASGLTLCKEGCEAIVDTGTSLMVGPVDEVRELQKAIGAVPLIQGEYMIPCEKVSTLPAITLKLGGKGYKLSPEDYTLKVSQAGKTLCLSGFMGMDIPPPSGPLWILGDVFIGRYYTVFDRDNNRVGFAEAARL

Row | SMILES | Ki [1] [µM] | IC50 [2] [µM] | Ki [3] [µM] | Ki [4] [µM]
1 | Cc1csc(COC(=O)N[C@@H](CNC(=O)OC(C)(C)C)C(=O)N[C@@H](CC(C)C)[C@@H](O)C[C@@H](C)C(=O)N[C@H](C(=O)NCC(C)C)C(C)C)n1 | 0.1 to 0.6 | > 100 | 0.1 to 0.6 | 0.1 to 0.6
2 | Cc1csc(COC(=O)N[C@@H](CNC(=O)O[C@H]2CCOC2)C(=O)N[C@@H](CC(C)C)[C@@H](O)C[C@@H](C)C(=O)N[C@H](C(=O)NCC(C)C)C(C)C)n1 | 0.1 to 0.6 | 6 to 100 | 0.1 to 0.6 | 0.1 to 0.6
3 | CC[C@@H](Cn1nc(C)cc1C)C(=O)N[C@@H](CNC(=O)OC(C)(C)C)C(=O)N[C@@H](CC(C)C)[C@@H](O)C[C@@H](C)C(=O)N[C@H](C(=O)NCC(C)C)C(C)C [tert-butyl (S)-2-((S)-2-((3,5-dimethyl-1H-pyrazol-1-yl)methyl)butanamido)-3-((4S,5S,7R)-5-hydroxy-8-((S)-1-(isobutylamino)-3-methyl-1-oxobutan-2-ylamino)-2,7-dimethyl-8-oxooctan-4-ylamino)-3-oxopropylcarbamate] | < 0.1 | < 6 |  | < 0.1
4 | COC(=O)NC[C@H](NC(=O)[C@@H](C)Cc1nc(C)cs1)C(=O)N[C@@H](CC(C)C)[C@@H](O)C[C@@H](C)C(=O)N[C@H](C(=O)NCC(C)C)C(C)C [methyl (S)-3-((4S,5S,7R)-5-hydroxy-8-((S)-1-(isobutylamino)-3-methyl-1-oxobutan-2-ylamino)-2,7-dimethyl-8-oxooctan-4-ylamino)-2-((S)-2-methyl-3-(4-methylthiazol-2-yl)propanamido)-3-oxopropylcarbamate] | < 0.1 | < 6 |  | < 0.1
5 | Cc1csc(CNC(=O)C[C@H](NC(=O)OC(C)(C)C)C(=O)N[C@@H](CC(C)C)[C@@H](O)C[C@@H](C)C(=O)N[C@H](C(=O)NCC(C)C)C(C)C)n1 [tert-butyl (5S,8S,9S,11R,14S)-9-hydroxy-8-isobutyl-14-isopropyl-11,18-dimethyl-1-(4-methylthiazol-2-yl)-3,6,12,15-tetraoxo-2,7,13,16-tetraazanonadecan-5-ylcarbamate] |  |  | > 0.6 | 0.1 to 0.6

Second part, the compound after the results:

Row | Ki [1] [µM] | IC50 [2] [µM] | Ki [3] [µM] | Ki [4] [µM] | SMILES
6 | < 0.1 | < 6 | < 0.1 | < 0.1 | COC(=O)NC[C@H](NC(=O)OCc1nc(C)cs1)C(=O)N[C@@H](CC(C)C)[C@@H](O)C[C@@H](C)C(=O)N[C@H](C(=O)NCC(C)C)C(C)C
7 |  |  | 0.1 to 0.6 | < 0.1 | Cc1csc(CNC(=O)C[C@@H](NC(=O)OC(C)(C)C)C(=O)N[C@@H](CC(C)C)[C@@H](O)C[C@@H](C)C(=O)N[C@H](C(=O)NCC(C)C)C(C)C)n1 [tert-butyl (5R,8S,9S,11 R,14S)-9-hydroxy-8-isobutyl-14-isopropyl-11,18-dimethyl-1-(4-methylthiazol-2-yl)-3,6,12,15-tetraoxo-2,7,13,16-tetraazanonadecan-5-ylcarbamate]
8 | < 0.1 | < 6 | 0.1 to 0.6 | < 0.1 | Cc1csc(C[C@H](C)C(=O)N[C@@H](CNC(=O)OC(C)(C)C)C(=O)N[C@@H](CC(C)C)[C@@H](O)C[C@@H](C)C(=O)N[C@H](C(=O)NCC(C)C)C(C)C)n1 [tert-butyl (S)-3-((4S,5S,7R)-5-hydroxy-8-((S)-1-(isobutylamino)-3-methyl-1-oxobutan-2-ylamino)-2,7-dimethyl-8-oxooctan-4-ylamino)-2-((S)-2-methyl-3-(4-methylthiazol-2-yl)propanamido)-3-oxopropylcarbamate]
9 | 0.1 to 0.6 | > 100 | 0.1 to 0.6 | < 0.1 | Cc1csc(COC(=O)N[C@@H](CNS(C)(=O)=O)C(=O)N[C@@H](CC(C)C)[C@@H](O)C[C@@H](C)C(=O)N[C@H](C(=O)NCC(C)C)C(C)C)n1
10 | < 0.1 | 6 to 100 |  | < 0.1 | Cc1csc(C[C@H](C)C(=O)N[C@@H](CNC(=O)OC(C)(C)C)C(=O)N[C@@H](Cc2ccccc2)[C@@H](O)C[C@@H](C)C(=O)N[C@H](C(=O)NCC(C)C)C(C)C)n1 [tert-butyl (S)-3-((2S,3S,5 R)-3-hydroxy-6-((S)-1-(isobutylamino)-3-methyl-1-oxobutan-2-ylamino)-5-methyl-6-oxo-1-phenylhexan-2-ylamino)-2-((S)-2-methyl-3-(4-methylthiazol-2-yl)propanamido)-3-oxopropylcarbamate]
